PubChem BioAssay AID1199 (EPA DSSTox, 2008)
Active and inactive are the calls of the source.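 Rule for the calls: active = a tumour-causing dose and a tumour site recorded for mice in at least one sex group; inconclusive = only government mouse studies exist and were judged inadequate; inactive = mouse studies exist but none gave tumours.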

System: mouse carcinogenicity bioassay, TD50 from CPDB
Assay: DSSTox (CPDBAS) Carcinogenic Potency Database Summary Mouse Bioassay Results
Source text: The Carcinogenic Potency Database (CPDB) is a unique and widely used international resource of the results of over 6500 chronic, long-term animal cancer tests on over 1500 chemical substances. The CPDB provides easy access to the bioassay literature, with qualitative and quantitative analyses of both positive and negative experiments that have been published over the past 50 years in the general literature and by the National Cancer Institute/National Toxicology Program. The CPDB standardizes the diverse literature of cancer bioassays that vary widely in protocol, histopathological examination and nomenclature, and in the published author's choices of what information to provide in their papers. Results are reported in the CPDB for tests in rats, mice, hamsters, dogs, and nonhuman primates, and are based on the most positive result among all experiments for each sex-species. The DSSTox CPDBAS (all species) file incorporates data from the CPDB Summary Tables for the full list of over 1500 chemical substances tested in at least one species. Summary bioassay results for Mouse (TD50, tumor sites, male, female, both sexes) are provided in the CPDB Summary Tables and the DSSTox CPDBAS file for over 1000 chemical substances.
TD50 is a standardized quantitative measure of carcinogenic potency (analogous to an LD50) and is reported in the CPDB Summary Table for each species. Activity Score for actives is computed by mapping of LOG10 (1/TD50_Mouse_mmol) activity values spanning range [MIN, MAX] onto Integer 1-100 Activity Score range, where 100 is highest potency and 1 is lowest: Activity Score = 100 * INTEGER[(log10(1/Activity) - MIN)/(MAX […] MIN)]. If activity is reported but no TD50_Mouse_mmol value is computed, such as for a mixture, the Activity Score is assigned the activity value "50". […] Target sites are reported for each sex-species group with a positive result in the CPDB on the basis of a positive author's opinion for the particular site, using all results from both the general literature and NCI/NTP bioassays. If a chemical has two or more target sites listed, the results may be from different experiments, and a single site may be a target organ in more than one experiment, as well. Blank entry in TargetSites field indicates no results reported.

[1] = TD50_Mouse_Note: no positive results, TargetSites_Mouse_Female: no positive results
[2] = TD50_Mouse_Note: TD50 is harmonic mean of more than one positive test, TargetSites_Mouse_Female: liver
[3] = TD50_Mouse_Note: TD50 is harmonic mean of more than one positive test, harmonic mean of TD50 includes a value for upper 99% confidence li, TargetSites_Mouse_Female: liver

Q: `NNC(=O)c1ccncc1` was tested. Which Potency (TD50_Mouse_Note: TD50 is harmonic mean of more than one positive test, greater than ten-fold variation among TD50 values for positive res, TargetSites_Mouse_Female: liver, lung, TargetSites_Mouse_BothSexes: mammary gland) did it give?
A: Its Potency is 0.198 mmol/kg/day.

Q: How did the outcome [1] turn out when `C=C1C[C@]23C[C@@]1(O)CC[C@H]2[C@@]12C=C[C@H](O)[C@@](C)(C(=O)O1)[C@H]2[C@@H]3C(=O)O` was run?
A: Its outcome is “inactive; no positive results”.

Q: How did the outcome [1] turn out when `O=C1CN=C(c2ccccc2)c2cc(Cl)ccc2N1CC1CC1` was run?
A: Its outcome is “inactive; no positive results”.

Q: How did the outcome [1] turn out when `C=C(C)[C@H]1CC=C(C)C(=O)C1` was run?
A: Its outcome is “inactive; no positive results”.

Q: How did the Potency (TD50_Mouse_Note: positive test results only by intraperitoneal or intravenous injection, TD50 is harmonic mean of more than one positive, TargetSites_Mouse_Female: hematopoietic system, lung) turn out when `O=P1(N(CCCl)CCCl)NCCCO1` (stereo not drawn) was run?
A: Its Potency is 0.0228 mmol/kg/day.

Q: With `COC(N)=O` as the compound, how does the outcome [1] read?
A: The outcome was “inactive; no positive results”.

Q: How did the outcome [1] turn out when `Cc1cc(OC(=O)N(C)C)n(C(C)C)n1` was run?
A: Its outcome is “inactive; no positive results”.

Q: With `O=C1C2CC=CCC2C(=O)N1SC(Cl)(Cl)Cl` (stereo not drawn) as the compound, how does the Potency (TD50_Mouse_Note: TD50 is harmonic mean of more than one positive test, TargetSites_Mouse_Female: small intestine) read?
A: Its Potency is 7.02 mmol/kg/day.

Q: Which outcome [1] does the source give for `c1ccc2[nH]ccc2c1` here?
A: The outcome was “inactive”.

Q: How did the outcome [1] turn out when `O=S1(=O)OCCO1` was run?
A: The outcome was “inactive”.

Q: `COc1cc(NC(=O)C(N=Nc2ccc(-c3ccc(N=NC(C(C)=O)C(=O)Nc4cc(OC)c(Cl)cc4OC)c(Cl)c3)cc2Cl)C(C)=O)c(OC)cc1Cl` (stereo not drawn) was tested. Which outcome (TargetSites_Mouse_BothSexes: no positive results) did it give?
A: The outcome was “inactive”.

Q: `CC/C(C)=N/O` was tested. Which Potency (TargetSites_Mouse_Female: no positive results) did it give?
A: Its Potency is 6.13 mmol/kg/day.

Q: Which Potency (TD50_Mouse_Note: TD50 is harmonic mean of more than one positive test, TargetSites_Mouse_Female: adrenal gland, liver) does the source give for `ClCC(Cl)Cl` here?
A: Its Potency is 0.412 mmol/kg/day.

Q: How did the Potency turn out when `Nc1cccc2ccccc12` was run?
A: The Potency was 0.47 mmol/kg/day.

Q: How did the outcome [1] turn out when `CC(C)(C)NC[C@H](O)COc1cccc2c1CCCC2=O` was run?
A: Its outcome is “inactive; no positive results”.

Q: For `O=C(O)C(Cl)(Cl)Cl`, which Potency [2] is on record?
A: Its Potency is 3.57 mmol/kg/day.

Q: What does the source list for `CNc1ccc(N(CCO)CCO)cc1[N+](=O)[O-]`?
A: Potency [2]: 0.308 mmol/kg/day; Potency [3]: 0.338 mmol/kg/day

Q: For `CCO`, which outcome [1] is on record?
A: The outcome was “inactive; no positive results”.

Q: How did the outcome [1] turn out when `ClC1=C(Cl)[C@]2(Cl)[C@@H]3[C@H]4C[C@H]([C@@H]5O[C@H]45)[C@@H]3[C@@]1(Cl)C2(Cl)Cl` was run?
A: The outcome was “inactive; no positive results”.

Q: For `O=C1C2(Cl)C3(Cl)C4(Cl)C(Cl)(Cl)C5(Cl)C3(Cl)C1(Cl)C5(Cl)C24Cl` (stereo not drawn), which Potency [2] is on record?
A: Its Potency is 0.002 mmol/kg/day.

Q: `CCCNN` was tested. Which Potency (TD50_Mouse_Note: TD50 is harmonic mean of more than one positive test, TargetSites_Mouse_Female: lung) did it give?
A: The Potency was 0.411 mmol/kg/day.

Q: With `CCN(Cc1cccc(S(=O)(=O)O)c1)c1ccc(C(=C2C=CC(=[N+](CC)Cc3cccc(S(=O)(=O)[O-])c3)C=C2)c2ccccc2)cc1` as the compound, how does the outcome [1] read?
A: Its outcome is “inactive; no positive results”.

Q: With `O=Cc1ccco1` as the compound, how does the Potency [2] read?
A: Its Potency is 2.05 mmol/kg/day.

Q: How did the Potency (TD50_Mouse_Note: TD50 is harmonic mean of more than one positive test, TargetSites_Mouse_Female: stomach) turn out when `ClCc1ccccc1` was run?
A: The Potency was 0.486 mmol/kg/day.

Q: How did the outcome [1] turn out when `Cc1cccc(OCC(O)CNC(C)(C)C)c1C` (stereo not drawn) was run?
A: Its outcome is “inactive; no positive results”.

Q: For `CN(C)c1ccc(Cc2ccc(N(C)C)cc2)cc1`, which Potency (TargetSites_Mouse_Female: liver) is on record?
A: The Potency was 0.814 mmol/kg/day.

Q: `ClC1=C(Cl)[C@]2(Cl)[C@@H]3[C@@H]4C[C@@H]([C@H]5O[C@@H]45)[C@@H]3[C@@]1(Cl)C2(Cl)Cl` was tested. Which Potency [3] did it give?
A: The Potency was 0.00239 mmol/kg/day.

Q: Which outcome (TD50_Mouse_Note: only experiment is NCI/NTP bioassay inadequate, TargetSites_Mouse_Female: NTP bioassay inadequate) does the source give for `COc1cc2c(c3c1c(=O)c1ccccc1n3C)C=CC(C)(C)O2` here?
A: The outcome was “ntp bioassay inadequate”.

Q: For `Nc1ncn([C@@H]2O[C@H](CO)[C@@H](O)[C@H]2O)c(=O)n1`, which Potency (TD50_Mouse_Note: positive test results only by intraperitoneal or intravenous injection, TD50 is harmonic mean of more than one positive, TargetSites_Mouse_Female: hematopoietic system, mammary gland, skin) is on record?
A: Its Potency is 0.000317 mmol/kg/day.

Q: For `Nc1ccc(Sc2ccc(N)cc2)cc1`, which Potency (TD50_Mouse_Note: TD50 is harmonic mean of more than one positive test, TargetSites_Mouse_Female: liver, thyroid gland) is on record?
A: Its Potency is 0.153 mmol/kg/day.

Q: `CC(Oc1ccc(Cl)cc1Cl)C(=O)O` (stereo not drawn) was tested. Which outcome [1] did it give?
A: Its outcome is “inactive; no positive results”.

Q: How did the outcome [1] turn out when `C#C[C@]1(O)CC[C@H]2[C@@H]3CCc4cc(OC)ccc4[C@H]3CC[C@@]21C` was run?
A: Its outcome is “inactive; no positive results”.

Q: Which results are given for `Oc1c(Cl)c(Cl)c(Cl)c(Cl)c1Cl`?
A: Potency (TD50_Mouse_Note: TD50 is harmonic mean of more than one positive test, TargetSites_Mouse_Female: adrenal gland, liver, vascular system): 0.0901 mmol/kg/day; Potency (TD50_Mouse_Note: TD50 is harmonic mean of more than one positive test, TargetSites_Mouse_Female: liver, vascular system): 0.0864 mmol/kg/day; outcome [1]: inactive

Q: `COC(C(=O)O)c1ccccc1` (stereo not drawn) was tested. Which outcome [1] did it give?
A: Its outcome is “inactive; no positive results”.

Q: `CC(=O)NNc1ccccc1` was tested. Which Potency (TD50_Mouse_Note: TD50 is harmonic mean of more than one positive test, TargetSites_Mouse_Female: vascular system) did it give?
A: The Potency was 0.341 mmol/kg/day.
